Results as given in US20250101129A1, “AFFINITY SUBSTANCE, COMPOUND, AND ANTIBODY AND THEIR SALTS” (Ajinomoto Co., Inc., priority 2022, published 2025).

Test system: CD3-activated human T cells containing PD-1-positive cells
Test: Flow cytometry binding to CD3-activated human T cells
Type: cell-based
Conditions: primary antibody final concentration 20 g/mL as printed, Alexa Fluor 488 anti-human IgG secondary
Method: The cells used were CD3-activated human T cells containing HER2-positive SKBR-3 cells, EGFR-positive A-431 cells, and PD-1-positive cells.
200,000 cells cultured in D-MEM medium (Thermo Fisher Scientific, Inc.) supplemented with 10% FBS (Thermo Fisher Scientific, Inc.) were collected, and 20 μL of PBS containing Human TruStain FcX (Biolegend) was added, followed by blocking of Fc receptors on ice for 10 minutes. The primary antibody reaction was performed by adding the above-described antibodies as primary antibodies to a cell staining buffer (PBS containing 1% FBS) to a final concentration of 20 g/mL, adding 20 μL of the mixtures to the cells, and incubating them for 20 minutes on ice. The cells after the primary antibody reaction were washed twice with the cell staining buffer. The second antibody reaction was performed by adding 40 μL of Goat anti-Human IgG (H+L) Cross-Adsorbed Secondary Antibody, Alexa Fluor™488 (Thermo Fisher Scientific, Inc.) diluted with the cell staining buffer to 10 g/mL as the second antibody to the cells, and incubating the cells on ice for 20 minutes. The cells were washed twice with the cell staining buffer, and then subjected to analysis using Attune NxT Flow Cytometer (Thermo Fisher Scientific, Inc.).

pembrolizumab
cells in which fluorescence was observed (positive rate), CD3-activated human T cells: about 23%
